# Legend:
# ΔF508-CFTR = biological target: T1, ΔF508-CFTR (Homo sapiens, UniProt P13569, DEL508-508); assay: Membrane potential optical assay (fluorescent voltage sensing dyes, FLIPR III), identification of potentiator compounds (Protocol 1); assay type: cell-based
# T1 construct: expressed in transfected cells
# Description: The assay utilizes fluorescent voltage sensing dyes to measure changes in membrane potential using a fluorescent plate reader (e.g., FLIPR III, Molecular Devices, Inc.) as a readout for increase in functional ΔF508-CFTR in NIH 3T3 cells. The driving force for the response is the creation of a chloride ion gradient in conjunction with channel activation by a single liquid addition step after the cells have previously been treated with compounds and subsequently loaded with a voltage sensing dye.
# To identify potentiators of ΔF508-CFTR, a double-addition HTS assay format was developed. This HTS assay utilizes fluorescent voltage sensing dyes to measure changes in membrane potential on the FLIPR III as a measurement for increase in gating (conductance) of ΔF508 CFTR in temperature-corrected ΔF508 CFTR NIH 3T3 cells. The driving force for the response is a Cl^− ion gradient in conjunction with channel activation with forskolin in a single liquid addition step using a fluorescent plate reader such as FLIPR III after the cells have previously been treated with potentiator compounds (or DMSO vehicle control) and subsequently loaded with a redistribution dye.
# Bath Solution #1: (in mM) NaCl 160, KCl 4.5, CaCl2 2, MgCl2 1, HEPES 10, pH 7.4 with NaOH.
# Chloride-free bath solution: Chloride salts in Bath Solution #1 (above) are substituted with gluconate salts. […]
# [1] = Physical and chemical stability of Compound 3 in aqueous methylcellulose formulations; assay type: physicochemical; settings: for physical stability of the HCl salt form in suspension: 0.5% methylcellulose/0.5% polysorbate 80 suspension vehicle, T(0), XRPD and 1H NMR
# Experimental: A 100 mL stock solution of 0.5% by weight methylcellulose was prepared by stirring 0.5 g of methylcellulose with 99.5 g of purified water until completely dissolved (approximately 24 hours). The appropriate amount of Compound 3 HCl salt based on free base was weighed and transferred to a scintillation vial. The desired amount of 0.5% methylcellulose stock solution for making a 6 mg/mL based on free base (6.48 mg/mL based on HCl salt) was transferred into the vial and sonicated for 20 minutes and homogenized for approximately 5 minutes.
# Methylcellulose (0.5 g) was combined with 99.0 g of purified water in a beaker and stirred in a 60-70° C. water bath for 30′-1 hr. The solution was stirred in a 0° C. ice/water bath for another 30′ or until clear. Polysorbate 80 (0.5 g) was added and stirring at room temperature followed for 30′-1 hr or until a clear solution was obtained.
# The appropriate amount of Compound 3 HCl salt based on free base was weighed and transferred to a scintillation vial. The desired amount of 0.5% methylcellulose and 0.5% polysorbate 80 stock solution for making a 6 mg/mL based on free base (6.48 mg/mL based on HCl salt) was transferred into the vial and sonicated for 20 minutes with alternate stirring for 1-2 minutes. The solution was homogenized for approximately 1-2 minutes.
# T1 sequence (P13569 with tags, fused parts or gaps DEL508-508): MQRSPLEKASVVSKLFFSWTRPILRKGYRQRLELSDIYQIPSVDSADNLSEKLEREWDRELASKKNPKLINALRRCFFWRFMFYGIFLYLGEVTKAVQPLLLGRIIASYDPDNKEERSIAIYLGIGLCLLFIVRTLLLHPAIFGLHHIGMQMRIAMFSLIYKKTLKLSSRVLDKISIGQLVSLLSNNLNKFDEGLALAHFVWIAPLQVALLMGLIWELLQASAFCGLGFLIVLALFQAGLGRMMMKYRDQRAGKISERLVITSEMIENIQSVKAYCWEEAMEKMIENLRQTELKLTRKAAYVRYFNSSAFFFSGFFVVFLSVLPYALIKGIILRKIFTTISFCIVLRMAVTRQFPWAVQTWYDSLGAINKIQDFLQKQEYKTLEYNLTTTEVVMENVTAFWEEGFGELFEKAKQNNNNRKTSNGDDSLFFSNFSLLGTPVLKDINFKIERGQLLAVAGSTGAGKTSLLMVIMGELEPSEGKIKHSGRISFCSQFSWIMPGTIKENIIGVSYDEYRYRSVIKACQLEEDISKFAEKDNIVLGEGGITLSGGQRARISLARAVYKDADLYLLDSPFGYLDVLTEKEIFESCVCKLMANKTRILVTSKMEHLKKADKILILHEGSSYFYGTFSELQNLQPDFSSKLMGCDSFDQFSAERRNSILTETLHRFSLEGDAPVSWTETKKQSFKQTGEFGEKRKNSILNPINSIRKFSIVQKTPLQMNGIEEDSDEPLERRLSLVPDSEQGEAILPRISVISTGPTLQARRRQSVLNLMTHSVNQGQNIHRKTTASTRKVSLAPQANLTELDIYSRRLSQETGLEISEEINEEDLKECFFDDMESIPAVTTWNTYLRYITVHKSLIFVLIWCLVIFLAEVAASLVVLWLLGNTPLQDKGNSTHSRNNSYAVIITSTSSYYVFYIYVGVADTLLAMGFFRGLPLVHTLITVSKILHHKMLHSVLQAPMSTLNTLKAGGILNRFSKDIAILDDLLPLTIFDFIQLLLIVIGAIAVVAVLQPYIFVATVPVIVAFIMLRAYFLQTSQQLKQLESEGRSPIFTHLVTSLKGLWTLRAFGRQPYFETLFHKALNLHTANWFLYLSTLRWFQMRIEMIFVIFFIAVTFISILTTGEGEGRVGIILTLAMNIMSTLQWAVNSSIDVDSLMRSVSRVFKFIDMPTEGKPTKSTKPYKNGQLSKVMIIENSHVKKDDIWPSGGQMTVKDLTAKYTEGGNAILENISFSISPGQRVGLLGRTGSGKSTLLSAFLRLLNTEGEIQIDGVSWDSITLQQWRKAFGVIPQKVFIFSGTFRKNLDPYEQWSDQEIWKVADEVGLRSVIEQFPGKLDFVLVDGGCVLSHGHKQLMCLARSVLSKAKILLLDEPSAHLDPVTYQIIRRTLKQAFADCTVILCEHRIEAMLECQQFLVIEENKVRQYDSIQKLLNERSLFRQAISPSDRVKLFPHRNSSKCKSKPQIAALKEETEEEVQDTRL
smiles,measurement,setting,value
O=C(Nc1ccc(N2C3CCC2[C@H](O)C3)cc1C(F)(F)F)c1c[nH]c2cccc(C(F)(F)F)c2c1=O (stereo partly drawn) [Compound 2-5],% Efficacy,"ΔF508-CFTR; compounds of Formula II, 100% efficacy is the maximum response obtained with 4-methyl-2-(5-phenyl-1H-pyrazol-3-yl)phenol",+++ (“+++” if efficacy was calculated to be greater than 100%)
"Cc1ccc(NC(=O)C2(c3ccc4c(c3)OC(F)(F)O4)CC2)nc1-c1cccc(C(=O)O)c1 [Compound 3 Form I, 3-(6-(1-(2,2-difluorobenzo[d][1,3]dioxol-5-yl)cyclopropanecarboxamido)-3-methylpyridin-2-yl)benzoic acid]",chemically stable (time),"[1]; room temperature, 0.5% methylcellulose/0.5% polysorbate 80 formulation vehicle, no sign of chemical degradation",at least 24 hrs
same,physically and chemically stable (time),"[1]; room temperature, methylcellulose formulation (0.5% by weight), no sign of chemical degradation",at least 24 hrs
"CC(C)(C)c1cc(C(C)(C)C)c(NC(=O)c2c[nH]c3ccccc3c2=O)cc1O [Compound 1, N-[2,4-bis(1,1-dimethylethyl)-5-hydroxyphenyl]-1,4-dihydro-4-oxoquinoline-3-carboxamide]",Emax,"ΔF508-CFTR; Compound 1, potentiator activity, Protocol 1, read-out: % Activity (relative efficacy)",25 to 100%
"Cc1ccc(NC(=O)C2(c3ccc4c(c3)OC(F)(F)O4)CC2)nc1-c1cccc(C(=O)O)c1.Cl [Compound 3 HCl salt, 3-(6-(1-(2,2-Difluorobenzo[d][1,3]dioxol-5-yl)cyclopropanecarboxamido)-3-methylpyridin-2-yl)benzoic acid.HCl salt]",physical stability of the HCl salt form in suspension,[1],not physically stable
same,physical stability of the HCl salt form in suspension,[1]; listed as HCl salt,quickly converted to Compound 3 Form I

# — US20160022665A2, “Pharmaceutical Compositions and Administrations Thereof” (Vertex Pharmaceuticals Incorporated, priority 2012, published 2016)
